The values below come from patent EP3875456A1, “HETERO-BIFUNCTIONAL PROTEOLYSIS-TARGETING CHIMERAS (PROTACS) FOR THE SELECTIVE DEGRADATION OF FK506-BINDING PROTEINS (FKBPS)” (Technische Universität Darmstadt, priority 2020, dated 2021).

Experiment [1] deals with T1, FKBP51 (Homo sapiens, UniProt Q13451).
T1 sequence (Q13451 1-457): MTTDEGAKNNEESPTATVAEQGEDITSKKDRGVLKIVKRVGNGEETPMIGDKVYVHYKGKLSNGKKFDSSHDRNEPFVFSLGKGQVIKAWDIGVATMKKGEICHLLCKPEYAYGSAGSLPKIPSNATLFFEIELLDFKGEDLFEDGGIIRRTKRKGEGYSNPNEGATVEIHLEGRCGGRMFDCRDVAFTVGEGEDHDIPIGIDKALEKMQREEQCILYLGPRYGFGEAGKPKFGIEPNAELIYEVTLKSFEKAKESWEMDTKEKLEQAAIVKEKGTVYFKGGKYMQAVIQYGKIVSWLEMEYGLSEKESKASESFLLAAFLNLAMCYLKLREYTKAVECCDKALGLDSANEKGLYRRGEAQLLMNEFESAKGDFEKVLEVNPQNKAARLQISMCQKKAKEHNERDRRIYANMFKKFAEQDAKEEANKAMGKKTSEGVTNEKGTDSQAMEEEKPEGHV
As to the kind of experiment: Degradation of FKBP51 in HeLa cells (Western blot). Conditions: 24 h incubation, endogeneous FKBP51, Western Blot, GAPDH control. Also on record: Upper blot: Endogeneous FKBP51; endogenous in cells; host or cells: HeLa. In kind it is cell-based. On the procedure: HeLa cells were incubated with the PROTAC MTQ202. 35,000 cells per well in a 24 well format. Figure 2 - Upper blot: Endogeneous FKBP51. Figure 2 - Lower blot: GAPDH. Cells were treated with the compound for 24 h before lysis. All samples have been exposed to a constant DMSO concentration. Lysate protein concentration was quantified via BCA assay and normalized with Lämmli buffer. Equal amounts of total protein were subjected to SDS-Page and Western Blot afterwards.
On the technique in general: A western blot detects proteins with antibodies after separation by electrophoresis.

Experiment [2] has as its target T1, FKBP51. As to the kind of experiment: Degradation of FKBP51 in HEK293T cells (Western blot). Also noted: Upper blot: Endogeneous FKBP51; endogenous in cells. The note with it: 48 h incubation, endogeneous FKBP51, Western Blot, GAPDH control. In kind it is cell-based. On the procedure:
HEK293T cells were incubated with the PROTAC MTQ202. 35,000 cells per well in a 24 well format. Figure 3-Upper blot: Endogeneous FKBP51. Figure 3-Lower blot: GAPDH. Cells were treated with the compound for 48 h before lysis. All samples have been exposed to a constant DMSO concentration. Lysate protein concentration was quantified via BCA assay and normalized with Lämmli buffer. Equal amounts of total protein were subjected to SDS-Page and Western Blot afterwards.

In experiment [3] the target is T2, FKBP51FK1 (Homo sapiens, UniProt Q13451).
T2 construct: FKBP51FK1
T2 sequence (Q13451 42-130 limits assumed): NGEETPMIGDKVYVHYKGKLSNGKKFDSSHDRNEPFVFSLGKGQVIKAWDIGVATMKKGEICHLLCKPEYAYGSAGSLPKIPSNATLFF
Nature of the experiment: Binding affinities of exemplary compounds to FKBP51. As for the experimental part: Binding to FKBP51 is an important prerequisite in order to allow degradation of FKBP51. Thus, the binding affinities of the newly synthesized molecules (table 1) were tested.

As usually defined, the Ki is the equilibrium dissociation constant of an inhibitor or competing ligand from its target. A low value points to a stronger hold on the target. Turning to `COc1ccc(CC[C@H](OC(=O)[C@H]2CCCCN2C(=O)[C@H](c2cc(OC)c(OC)c(OC)c2)C2CCCCC2)c2cccc(OCc3cn(CCOCCOCCOCCOCC(=O)N[C@H](C(=O)N4C[C@H](O)C[C@H]4C(=O)NCc4ccc(-c5scnc5C)cc4)C(C)(C)C)nn3)c2)cc1OC` (stereo in doubt) [MTQ202, (S)-(R)-3-(3,4-Dimethoxyphenyl)-1-(3-((1-((S)-16-((2S,4R)-4-hydroxy-2-((4-(4-methylthiazol-5-yl)benzyl)carbamoyl)pyrrolidine-1-carbonyl)-17,17-dimethyl-14-oxo-3,6,9,12-tetraoxa-15-azaoctadecyl)-1H-1,2,3-triazol-4-yl)methoxy)phenyl)propyl 1-((S)-2-cyclohexyl-2-(3,4,5-trimethoxyphenyl)acetyl)piperidine-2-carboxylate], the “Degradation of FKBP51” value in experiment [1] is reported as “clearly visible, but not complete”; in experiment [2], “clearly visible, but not complete”. In experiment [3], this molecule came in with a Ki of 24 ± 8 nM. `COc1cccc([C@@H](CCc2ccc(OCc3cn(CCOCCOCCOCCOCC(=O)N[C@H](C(=O)N4C[C@H](O)C[C@H]4C(=O)NCc4ccc(-c5scnc5C)cc4)C(C)(C)C)nn3)c(OC)c2)OC(=O)[C@@H]2CCCCN2C(=O)[C@H](c2cc(OC)c(OC)c(OC)c2)C2CCCCC2)c1` [MTQ331, (S)-(R)-3-(4-((1-((5)-16-((25,4R)-4-Hydroxy-2-((4-(4-methylthiazol-5-yl)benzyl)carbamoyl)pyrrolidine-l-carbonyl)-17,17-dimethyl-14-oxo-3,6,9,12-tetraoxa-15-azaoctadecyl)-1H-1,2,3-triazol-4-yl)methoxy)-3-methoxyphenyl)-1-(3-methoxyphenyl)propyl 1-((S)-2-cyclohexyl-2-(3,4,5-trimethoxyphenyl)acetyl)piperidine-2-carboxylate] had an inhibition constant (Ki) in experiment [3] of 59 ± 22 nM.

`COc1cccc([C@@H](CCc2ccc(OCc3cn(CCOCCOCCOCCOCCOCC(=O)N[C@H](C(=O)N4C[C@H](O)C[C@H]4C(=O)NCc4ccc(-c5scnc5C)cc4)C(C)(C)C)nn3)c(OC)c2)OC(=O)[C@@H]2CCCCN2C(=O)[C@H](c2cc(OC)c(OC)c(OC)c2)C2CCCCC2)c1` [MTQ332, (S)-(R)-3-(4-((1-((S)-19-((2S,4R)-4-Hydroxy-2-((4-(4-methylthiazo1-5-yl)benzyl)carbamoyl)pyrrolidine-1-carbonyl)-20,20-dimethyl-17-oxo-3,6,9,12,15-pentaoxa-18-azahenicosyl)-1H-1,2,3-triazol-4-yl)methoxy)-3-methoxyphenyl)-1-(3-methoxyphenyl)propyl 1-((S)-2-cyclohexyl-2-(3,4,5-trimethoxyphenyl)acetyl)piperidine-2-carboxylate]: the Ki in experiment [3] came to 34 ± 10 nM. Molecule `COc1cccc([C@@H](CCc2ccc(OCc3cn(CCOCC(=O)Nc4cccc5c4C(=O)N(C4CCC(=O)NC4=O)C5=O)nn3)c(OC)c2)OC(=O)[C@@H]2CCCCN2C(=O)[C@H](c2cc(OC)c(OC)c(OC)c2)C2CCCCC2)c1` (stereo partly drawn) [MTQ333, (25)-(1R)-3-(4-((1-(2-(2-((2-(2,6-Dioxopiperidin-3-yl)-1,3-dioxoisoindolin-4-yl)amino)-2-oxoethoxy)ethyl)-1H-1,2,3-triazol-4-yl)methoxy)-3-methoxyphenyl)-1-(3-methoxyphenyl)propyl 1-((S)-2-cyclohexyl-2-(3,4,5-trimethoxyphenyl)acetyl)piperidine-2-carboxylate] yielded a Ki in experiment [3] of 22 ± 6 nM. The same measure, in the same setting: then `COc1cccc([C@@H](CCc2ccc(OCc3cn(CCOCCOCC(=O)Nc4cccc5c4C(=O)N(C4CCC(=O)NC4=O)C5=O)nn3)c(OC)c2)OC(=O)[C@@H]2CCCCN2C(=O)[C@H](c2cc(OC)c(OC)c(OC)c2)C2CCCCC2)c1` (stereo partly drawn) [MTQ334, (25)-(1R)-3-(4-((1-(2-(2-(2-((2-(2,6-Dioxopiperidin-3-yl)-1,3-dioxoisoindolin-4-yl)amino)-2-oxoethoxy)ethoxy)ethyl)-1H-1,2,3-triazol-4-yl)methoxy)-3-methoxyphenyl)-1-(3-methoxyphenyl)propyl 1-((S)-2-cyclohexyl-2-(3,4,5-trimethoxyphenyl)acetyl)piperidine-2-carboxylate], with 21 ± 10 nM.
